Patent US5162571A, “Phenol derivatives, their production and use” (Takeda Chemical Industries, Ltd., priority 1987, dated 1992)
Blank lines part the entries; values can stand above or below the compound they belong to.

What was measured:
[1] = biological target: T1, specific [^3 H] U-46619 binding to guinea pig platelet membrane (Cavia porcellus, UniProt A0A286Y4I8); test: Inhibition of specific [^3 H] U-46619 binding to guinea pig platelet membrane; conditions: [^3 H] U-46619, 25° C., 30 min; read-out: IC50 (Concentration for 50% inhibition)
T1 construct: Platelet membranes were prepared according to the following procedure; from tissue; host or cells: guinea pig platelet membranes
T1 sequence (A0A286Y4I8 1-347): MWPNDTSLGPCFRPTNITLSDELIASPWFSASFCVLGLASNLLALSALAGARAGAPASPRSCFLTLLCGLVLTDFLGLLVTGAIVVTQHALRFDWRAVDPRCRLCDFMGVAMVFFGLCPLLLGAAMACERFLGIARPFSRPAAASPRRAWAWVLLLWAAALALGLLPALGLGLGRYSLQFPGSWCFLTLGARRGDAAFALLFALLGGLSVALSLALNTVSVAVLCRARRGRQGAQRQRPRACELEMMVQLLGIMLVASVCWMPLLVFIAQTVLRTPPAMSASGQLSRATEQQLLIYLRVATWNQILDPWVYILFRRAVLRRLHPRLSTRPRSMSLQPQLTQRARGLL
Method: Inhibition of specific [^3 H] U-46619 binding to guinea pig platelet membrane
Method: Blood from normal guinea pig was collected into 0.315% citrate solution containing aspirin (final concentration 1 mM) and was centrifuged at 3000 r.p.m. for […]. The PRP (platelet rich plasma) was centrifuged at 4800 r.p.m for 10 min. at 4° C. Platelet membranes were prepared according to the following procedure: In order to remove the residual plasma protein, the platelet pellet was washed once with 30 ml of buffer containing 25 mM Tris-HCl/5 mM MgCl2 (pH 7.4) and recentrifuged to pellet the platelets. The platelets were then resuspended in 20 ml of the same buffer, and the cells were disrupted by sonication. The sonication was performed on ice using a Kontes Sonicator (Vineland, N.J.). The platelets were sonicated for a total of 90 sec. with a 15 sec. burst followed by a 15 sec. intermission. The sonicated mixture was centrifuged at 100,000×g for 1 hour and the membrane fraction was suspended in the same buffer. The protein concentration was adjusted to 1 mg/ml.
The binding assay was performed at 25° C. for 30 min. One ml of the resuspended membrane fraction was incubated with […] of [^3 H] U-46619. The incubation mixture was filtered through a glass fiber membrane (GF/C, whatman) to separate the membrane bound from free [^3 H] U-46619. The membranes were quickly washed twice with 5 ml of cold buffer, mixed with 4 ml of ACS scintillation fluid and counted for [^3 H] U-46619.

[2] = system: U-46619 (TXA2 mimic)-induced broncho-constriction; test: Inhibitory effect on U-46619 (TXA2 mimic)-induced broncho-constriction in guinea pig; type: in vivo; conditions: Cavia porcellus, ** p < 0.01; for inhibition in vivo at 5 mg/kg: 5 mg/kg p.o.; for inhibition in vivo at 0.31 mg/kg: 0.31 mg/kg p.o.
Method: Inhibitory effect on U-46619 (TXA2 mimic)-induced broncho-constrictionin guinea pig
Method: Eight male Hartley guinea pigs were used per one group. The guinea pig anesthetized with urethane (1.5 g/kg, i.p.) was fixed in a dorsal position, subjected to tracheotomy and connected to a respirator through a cannula. A side branch of the tracheal cannula was connected to a respirator (Harvard apparatus rodent respirator Type 680) at the rate of 70 strokes/min. and a constant volume of 3 to 5 ml.
Inflation pressure was kept constant at 10 cm H2 O.
After treatment with gallamine triethiodide (1 mg/kg, i.v.), U-46619 (10 μg/Kg) dissolved in a physiological saline solution was given through a carotid cannula and the airway resistance was measured by the overflow technique of Konzett-Rossler method (Konzett, H. and Rossler, R., Naunyn-Schmiedegerg's Arch, Exp. Path. Pharmak., 195, 71-74 (1940). A test compound was suspended in 5% gum arabic solution and was administered orally 1 hour before the treatment with U-46619.
Alternatively, a test compound was dissolved in aqueous 50% dimethylsulfoxide solution and administered interveneously in the dosage of 0.1 ml/100 g body weight 9 minutes before the treatment of U-46619.

[3] = biological target: T2, Thromboxane A2 (TXA2) receptor (Oryctolagus cuniculus, UniProt Q6WQI8); test: Thromboxane A2 (TXA2) receptor antagonism: inhibitory effect on contraction of rabbit aorta by TXA2-mimics; type: cell-based; conditions: for inhibition at 1 µM: 10^-6 M; for inhibition at 0.1 µM: 10^-7 M
T2 construct: contraction by TXA2 mimics U-44069 or U-46619
T2 sequence (Q6WQI8 1-233): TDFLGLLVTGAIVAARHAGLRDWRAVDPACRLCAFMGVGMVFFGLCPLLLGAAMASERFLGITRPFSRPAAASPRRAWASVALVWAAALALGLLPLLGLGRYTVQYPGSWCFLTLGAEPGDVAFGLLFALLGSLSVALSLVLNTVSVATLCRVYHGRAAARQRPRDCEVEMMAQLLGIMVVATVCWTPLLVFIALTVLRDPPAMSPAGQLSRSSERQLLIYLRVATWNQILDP
Method: Thromboxane A2 (TXA2) receptor antagonism
Inhibitory effect on contraction of rabbit aorta by thromboxan A2 (TXA2)-mimics
Method: A spiral strip of the rabbit aorta (2-3 mm wide, about 3 cm long) was suspended in Krebs-Henseleit solution under the load of 2 g. The Krebs-Henseleit solution was saturated with a mixed gas of 95%O2 -5%CO2 and warmed at 37° C. Inhibition of the contraction of the vascular strip caused by a TXA2 mimic substance U-44069^1) (10^-7 M) or U-46619^2) (3×10 ^-8 M), by pretreatment with Compound No. 13 30 minutes before was studied.
1) U-44069: (5Z, 9α, 11α, 13E, 15S)-15-hydroxy-9,11-(epoxymethano)-prosta-5,13-dienoic acid (manufacturedby The Upjohn Company in U.S.A.)
2) U-46619: (5Z, 9α, 11α, […], 15S)-15-hydroxy-11,9-(epoxymethano)-prosta-5,13-dienoic acid (manufacturedby Cayman Chemical Company)
In Table 5, "*" represents addition of U-46619.

[4] = addition of U-46619 (3×10^-8 M) (*)
[5] = iv, 1.25 mg/kg i.v., 9 minutes before U-46619
[6] = U-44069 (10^-7 M)-induced contraction

SMILES: Cc1c(C)c2c(c(C(CCCCCC(=O)O)c3ccc(F)cc3)c1O)CCC2 (stereo not drawn) [Compound 22]
IC50 [1]: 160 nM
inhibition in vivo at 1.25 mg/kg [2, 5]: 43%
inhibition in vivo at 5 mg/kg ([2]; po, 1 hour before U-46619): 83%
inhibition at 10 µM ([3]; 10^-5 M, U-44069 (10^-7 M)-induced contraction): 100%
inhibition at 1 µM [3, 6]: 45%

SMILES: Cc1c(C)c(CO)c(C)c(C(CCCCCC(=O)O)c2ccc(F)cc2)c1O (stereo not drawn) [Compound 32, 7-(4-fluorophenyl)-7-(6-hydroxy-3-hydroxymethyl-2,4,5-trimethylphenyl)heptanoic acid]
IC50 [1]: 32 nM
inhibition in vivo at 0.31 mg/kg ([2]; po, 1 hour before U-46619): 57%
inhibition at 1 µM [3, 4]: 100%
inhibition at 0.1 µM [3, 4]: 95%

SMILES: Cc1c(C)c(Cc2ccccc2)c(C)c(C(CCCCCC(=O)O)c2ccc(F)cc2)c1O (stereo not drawn) [Compound 19]
IC50 [1]: 160 nM

SMILES: Cc1c(C)c(Cl)c(C)c(C(CCCCCC(=O)O)c2ccc(F)cc2)c1O (stereo not drawn) [Compound 17]
IC50 [1]: 840 nM
inhibition in vivo at 1.25 mg/kg [2, 5]: 71%
inhibition at 1 µM [3, 6]: 98%
inhibition at 0.1 µM [3, 6]: 12%

Further lines, with some results ahead:

IC50 [1]: 80 nM
inhibition at 1 µM [3, 4]: 98%
inhibition at 0.1 µM [3, 4]: 23%
SMILES: CC(=O)c1c(C)c(C)c(O)c(C(CCCCCC(=O)O)c2ccc(F)cc2)c1C (stereo not drawn) [Compound 35, 7-(3-acetyl-6-hydroxy-2,4,5-trimethylphenyl)-7-(4-fluorophenyl)heptanoic acid]
inhibition in vivo at 5 mg/kg ([2]; po, 1 hour before U-46619): 76%

IC50 [1]: 13 nM
inhibition at 0.1 µM [3, 4]: 100%
SMILES: Cc1c(C)c2c(c(C(CCCCCC(=O)O)c3ccc(F)cc3)c1O)CCC2=O (stereo not drawn) [Compound 37, 7-(6,7-dimethyl-5-hydroxy-1-oxoindan-4-yl)-7-(4-fluorophenyl)heptanoic acid]
inhibition in vivo at 1.25 mg/kg ([2]; po, 1.25 mg/kg p.o., 1 hour before U-46619): 59%

IC50 [1]: 14 nM
inhibition at 0.1 µM [3, 4]: 96%
SMILES: C=CCON=Cc1c(C)c(C)c(O)c(C(CCCCCC(=O)O)c2ccc(F)cc2)c1C (stereo not drawn) [Compound 52]
inhibition in vivo at 0.31 mg/kg ([2]; po, 1 hour before U-46619): 36%
